PubChem BioAssay AID2060333 (Molecular Pharmacology Branch, DTP, NCI, 2025)

System: 845751-090-R-J2-PDC tumor spheroid viability
Assay: Anticancer human tumor 845751-090-R-J2-PDC patient-derived head and neck squamous carcinoma cell line growth inhibition [IpAb]
Details: spheroids with HUVEC and MSC; for IC50: curve of first compound; for viability, T/C: stronger effect = lower value
From the text: Combinatorial screen of targeted agents with ipatasertib and abemaciclib in multi-cell type tumor spheroids
A high-throughput screen of multi-cell type tumor spheroids was designed to identify active combinations of targeted small molecules and ipatasertib or abemaciclib. Complex spheroids include a stromal component modeled by human endothelial cells (HUVEC) and fibroblasts modeled by human mesenchymal stem cells (MSCs). The concentration ranges selected for each drug and investigational agent were based upon clinically achievable concentrations if the clinical Cmax of the agent was known.
Compounds. The drugs and investigational agents: ipatasertib (NSC767898), abemaciclib(NSC768073), selumetinib (NSC741078), trametinib (758246), adavosertib (NSC754352), everolimus (NSC733504), sapanisertib (NSC764658), vemurafenib (NSC761431), venetoclax (NSC766270), copanlisib (NSC809693), apelisib (NSC765974), palbociblib (NSC758247), vemurafenib (NSC761431), dabrafenib (NSC764134), ravoxertinib (NSC781343), BMS-387032 (NSC767048), sotorasib (NSC818433), talazoparib (NSC767125) and afursertib (NSC778305), were obtained from the National Cancer Institute (NCI) Developmental Therapeutics Program Chemical Repository. The FDA-approved anticancer drug set is available from the NCI Developmental Therapeutics Program. […] The stock solutions were prepared in dimethyl sulfoxide (DMSO, Sigma-Aldrich, St. Louis, MO, cat. D2650) at 800-fold the tested concentration and stored at -70 degrees C prior to their use. All drugs and investigational agents were tested over a range starting from a high concentration at or near the clinical Cmax and decreasing in half-log increments. If the clinical Cmax for an agent had not been determined, the highest concentration tested was 10 microM.
NCI60 Cell Culture. NCI60 cell lines were obtained from the NCI Developmental Therapeutics Program Tumor Repository. For each lot of cells, the Repository performed Applied Biosystems AmpFLSTR Identifiler testing with PCR amplification to confirm consistency with the published Identifier STR profile for each cell line. Cells were kept in continuous culture for no more than 20 passages. The optimal seeding densities for each of the cell lines at each time point assessed were determined prior to performing the concentration response studies. Briefly, the NCI60 human tumor lines were grown as monolayers in RPMI 1640 medium supplemented with 10% FBS and 2 mmol/L L-glutamine.
An additional 9 lines were from the NCI60 cell line panel including MDA-MB-231 breast carcinoma, MDA-MB-468 breast carcinoma, MCF7 breast carcinoma, Hs578T breast carcinoma, MALME-3M melanoma, SK-MEL-2 melanoma, SK-OV-3 ovarian carcinoma, DU-145 prostate carcinoma, PC-3 prostate carcinoma, all cell lines along with major genetic alterations are listed on Table 2. Pooled donor human umbilical vein endothelial cells (HUVEC, Lonza, cat. CC-2519) and human mesenchymal stem cells (hMSC, Lonza, cat. PT-2501) were purchased from Lonza (Walkersville, MD).
PDMR cell lines were grown in complete medium (DC medium): Dulbecco's modified Eagle's medium (DMEM)/F12 supplemented with 5% fetal bovine serum (FBS), 2 mM L-glutamine, 100 U/mL penicillin and 100 µg/ml streptomycin, 0.4 µg/ml hydrocortisone, 10 ng/ml epidermal growth factor (EGF) recombinant human protein, 24 µg/mL adenine, and 0.1 mg/mL primocin. During culture from frozen stock vials, PDMR cells were cultured in the same medium containing 10 µM Y-27632 (see Table 3). The PDCs were cultured in complete DMEM/F12 media without 10 microM Y-27632 dihydrochloride for at least two passages prior to the screen. The pooled donor HUVEC and hMSC were cultured in endothelial cell growth medium 2 (PromoCell, Heidelberg, Germany, cat. C-22011) and mesenchymal stem cell growth medium 2 (PromoCell, cat. C-28009), respectively. For all experiments, HUVEC and hMSC were used at passages </=5.
[…]

[1] = second compound 0.1 µM, first compound 0.0316 µM
[2] = second compound 0.1 µM, first compound 0.1 µM
[3] = second compound 0.316 µM, first compound 0.0316 µM
[4] = second compound 0.316 µM, first compound 0.1 µM
[5] = second compound 1 µM, first compound 0.0316 µM
[6] = second compound 1 µM, first compound 0.1 µM
[7] = second compound 3.16 µM, first compound 0.0316 µM
[8] = second compound 3.16 µM, first compound 0.1 µM
[9] = second compound 10 µM, first compound 0.0316 µM
[10] = second compound 10 µM, first compound 0.1 µM
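Note: spheroids exposed to compounds for 7 days before readout.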
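Throughout, for viability, T/C: CTG3D luminescence normalised so that 100% = DMSO vehicle control.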

C=CCn1c(=O)c2cnc(Nc3ccc(N4CCN(C)CC4)cc3)nc2n1-c1cccc(C(C)(C)O)n1 + CC(C)NCC(C(=O)N1CCN(c2ncnc3c2C(C)CC3O)CC1)c1ccc(Cl)cc1
IC50 (second compound 0.1 µM): 54.6 nM
IC50 (second compound 0.316 µM): < 31.6 nM
IC50 (second compound 1 µM): < 31.6 nM
IC50 (second compound 3.16 µM): < 31.6 nM
IC50 (second compound 10 µM): < 31.6 nM
viability, T/C [1]: 62.1%
viability, T/C [2]: 38.2%
viability, T/C (second compound 0.1 µM, first compound 0.316 µM): 22.2%
viability, T/C (second compound 0.1 µM, first compound 1 µM): 21.7%
viability, T/C (second compound 0.1 µM, first compound 3.16 µM): 35.8%
viability, T/C (second compound 0.1 µM, first compound 10 µM): 56.6%
viability, T/C [3]: 34%
viability, T/C [4]: 22.1%
viability, T/C (second compound 0.316 µM, first compound 0.316 µM): 19.9%
viability, T/C (second compound 0.316 µM, first compound 1 µM): 16.9%
viability, T/C (second compound 0.316 µM, first compound 3.16 µM): 22.1%
viability, T/C (second compound 0.316 µM, first compound 10 µM): 28.4%
viability, T/C [5]: 24.5%
viability, T/C [6]: 15%
viability, T/C (second compound 1 µM, first compound 0.316 µM): 11.1%
viability, T/C (second compound 1 µM, first compound 1 µM): 13.7%
viability, T/C (second compound 1 µM, first compound 3.16 µM): 22.9%
viability, T/C (second compound 1 µM, first compound 10 µM): 18.9%
viability, T/C [7]: 19.2%
viability, T/C [8]: 8.76%
viability, T/C (second compound 3.16 µM, first compound 0.316 µM): 7.09%
viability, T/C (second compound 3.16 µM, first compound 1 µM): 32.9%
viability, T/C (second compound 3.16 µM, first compound 3.16 µM): 19.9%
viability, T/C (second compound 3.16 µM, first compound 10 µM): 11.9%
viability, T/C [9]: 6.27%
viability, T/C [10]: 4.29%
viability, T/C (second compound 10 µM, first compound 0.316 µM): 4.36%
viability, T/C (second compound 10 µM, first compound 1 µM): 14%
viability, T/C (second compound 10 µM, first compound 3.16 µM): 13.9%
viability, T/C (second compound 10 µM, first compound 10 µM): 8.16%

CC(C)n1nc(-c2ccc3oc(N)nc3c2)c2c(N)ncnc21 + CC(C)NCC(C(=O)N1CCN(c2ncnc3c2C(C)CC3O)CC1)c1ccc(Cl)cc1
IC50 (second compound 0.1 µM): 1.3 nM
IC50 (second compound 0.316 µM): < 0.316 nM
IC50 (second compound 1 µM): < 0.316 nM
IC50 (second compound 3.16 µM): < 0.316 nM
IC50 (second compound 10 µM): < 0.316 nM
viability, T/C (second compound 0.1 µM, first compound 0.000316 µM): 55.2%
viability, T/C (second compound 0.1 µM, first compound 0.001 µM): 48.8%
viability, T/C (second compound 0.1 µM, first compound 0.00316 µM): 45.1%
viability, T/C (second compound 0.1 µM, first compound 0.01 µM): 28.1%
viability, T/C [1]: 21.2%
viability, T/C [2]: 21.8%
viability, T/C (second compound 0.316 µM, first compound 0.000316 µM): 36%
viability, T/C (second compound 0.316 µM, first compound 0.001 µM): 27.3%
viability, T/C (second compound 0.316 µM, first compound 0.00316 µM): 23.3%
viability, T/C (second compound 0.316 µM, first compound 0.01 µM): 13.5%
viability, T/C [3]: 11.2%
viability, T/C [4]: 9.02%
viability, T/C (second compound 1 µM, first compound 0.000316 µM): 22.4%
viability, T/C (second compound 1 µM, first compound 0.001 µM): 22.9%
viability, T/C (second compound 1 µM, first compound 0.00316 µM): 12.2%
viability, T/C (second compound 1 µM, first compound 0.01 µM): 8.4%
viability, T/C [5]: 8.17%
viability, T/C [6]: 9.76%
viability, T/C (second compound 3.16 µM, first compound 0.000316 µM): 24.3%
viability, T/C (second compound 3.16 µM, first compound 0.001 µM): 13.1%
viability, T/C (second compound 3.16 µM, first compound 0.00316 µM): 8.4%
viability, T/C (second compound 3.16 µM, first compound 0.01 µM): 5.71%
viability, T/C [7]: 4%
viability, T/C [8]: 3.17%
viability, T/C (second compound 10 µM, first compound 0.000316 µM): 8.63%
viability, T/C (second compound 10 µM, first compound 0.001 µM): 7.55%
viability, T/C (second compound 10 µM, first compound 0.00316 µM): 4.17%
viability, T/C (second compound 10 µM, first compound 0.01 µM): 4.42%
viability, T/C [9]: 2.07%
viability, T/C [10]: 1.99%
